Reference: patent US12509444B2, “Compounds and methods for CD73 modulation and indications therefor” (Plexxikon Inc., priority 2019, dated 2025)
pIC50: −log10 of the molar value.

Columns and labels:
[1] = target: T1, Human CD73 (amino acid residues 27-549) (Homo sapiens, UniProt P21589); test: CD73 enzymatic assay (luciferase-based indirect assay, CellTiter-Glo); assay type: biochemical; conditions: 0.4 nM CD73, 150 μM AMP, 1 hour at room temperature
T1 construct: Human CD73 (amino acid residues 27-549); His tag (N); made in house; host or cells: E. coli
T1 sequence (P21589 27-549): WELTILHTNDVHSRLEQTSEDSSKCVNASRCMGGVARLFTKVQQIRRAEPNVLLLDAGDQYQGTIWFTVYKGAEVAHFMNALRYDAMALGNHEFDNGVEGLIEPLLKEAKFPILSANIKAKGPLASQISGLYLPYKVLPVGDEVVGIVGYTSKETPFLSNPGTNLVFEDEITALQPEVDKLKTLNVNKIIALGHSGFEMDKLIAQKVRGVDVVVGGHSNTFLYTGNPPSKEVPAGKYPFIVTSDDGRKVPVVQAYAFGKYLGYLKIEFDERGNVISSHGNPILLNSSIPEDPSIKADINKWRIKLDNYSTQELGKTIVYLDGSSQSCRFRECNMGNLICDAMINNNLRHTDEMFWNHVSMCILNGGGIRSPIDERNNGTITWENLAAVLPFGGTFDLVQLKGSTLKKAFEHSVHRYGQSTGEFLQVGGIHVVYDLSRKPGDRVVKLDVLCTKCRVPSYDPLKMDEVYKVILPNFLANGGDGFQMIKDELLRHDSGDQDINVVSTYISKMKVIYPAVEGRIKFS
Summary of the method: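 His-tagged human CD73 (27-549) from E. coli, 0.4 nM, with 150 μM AMP in 50 mM HEPES pH 7.4, 0.01% Tween 20; 1 h at room temperature. AMP remaining read by CellTiter-Glo 2.0 luminescence with 1 μM final ATP after 30 min. IC50 from nonlinear regression of % inhibition.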

[2] = target: T2, human CD73 (Homo sapiens, UniProt P21589); test: Inhibitor activity against CD73 in cell based assay (CD73 expressing CHO-K1 cells); conditions: CHO-K1 cells expressing human CD73, 150 μM AMP, 4 hours of incubation; read-out: CHO-K1 CELL VARIANT: CD73 IC50
T2 construct: expressed in transfected cells
T2 sequence (P21589 27-549): T1 sequence (P21589 27-549)
Summary of the method: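 Stably transfected CHO-K1 cells expressing human CD73 (1×10^4/well) incubated 4 h with compound (8-point 1:3 titration, top 10 μM final, 0.2% DMSO) and 150 μM AMP. Residual AMP in supernatant measured by CellTiter-Glo luminescence with 1 μM ATP after 30 min at room temperature; IC50 by nonlinear regression of percent inhibition vs high/low controls.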

| Structure (SMILES) | pIC50 [1] | pIC50 [2] |
| --- | --- | --- |
| O=C(NC1CCN(C(=O)Nc2cc(F)ccc2F)CC1)O[C@@H]1CCN(c2cn[nH]c(=O)c2Cl)C1 [P-0491, (R)-1-(5-chloro-6-oxo-1,6-dihydropyridazin-4-yl)pyrrolidin-3-yl (1-((2,5-difluorophenyl)carbamoyl)piperidin-4-yl)carbamate] | 5.00 to 9.00 | 5.00 to 9.00 |
| O=C(NC1CCN(C(=O)Nc2ccc(OC(F)(F)F)cc2)CC1)O[C@@H]1CCN(c2cn[nH]c(=O)c2Cl)C1 [P-0492, (R)-1-(5-chloro-6-oxo-1,6-dihydropyridazin-4-yl)pyrrolidin-3-yl (1-((4-(trifluoromethoxy)phenyl)carbamoyl)piperidin-4-yl) carbamate] | 5.00 to 9.00 | 5.00 to 9.00 |
| O=C(NC1CCN(C(=O)Nc2cccc(OC(F)F)c2)CC1)O[C@@H]1CCN(c2cn[nH]c(=O)c2Cl)C1 [P-0493, (R)-1-(5-chloro-6-oxo-1,6-dihydropyridazin-4-yl)pyrrolidin-3-yl (1-((3-(difluoromethoxy)phenyl)carbamoyl)piperidin-4-yl) carbamate] | 5.00 to 9.00 | 5.00 to 9.00 |
| O=C(NC1CCN(C(=O)Nc2ccccc2Cl)CC1)O[C@@H]1CCN(c2cn[nH]c(=O)c2Cl)C1 [P-0494, (R)-1-(5-chloro-6-oxo-1,6-dihydropyridazin-4-yl)pyrrolidin-3-yl (1-((2-chlorophenyl)carbamoyl)piperidin-4-yl)carbamate] | 5.00 to 9.00 | 5.00 to 9.00 |
| O=C(NC1CCN(C(=O)Nc2cc(Cl)cc(Cl)c2)CC1)O[C@@H]1CCN(c2cn[nH]c(=O)c2Cl)C1 [P-0495, (R)-1-(5-chloro-6-oxo-1,6-dihydropyridazin-4-yl)pyrrolidin-3-yl (1-((3,5-dichlorophenyl)carbamoyl)piperidin-4-yl)carbamate] | 5.00 to 9.00 | 5.00 to 9.00 |
| N#Cc1c(N2CC[C@@H](OC(=O)NC3CCCC3)C2)cnn(CCO)c1=O [P-0496, (R)-1-(5-cyano-1-(2-hydroxyethyl)-6-oxo-1,6-dihydropyridazin-4-yl)pyrrolidin-3-yl cyclopentylcarbamate] | 5.00 to 9.00 | 5.00 to 9.00 |
| N#Cc1c(N2CC[C@@H](OC(=O)NC3CCC(F)(F)CC3)C2)cnn(CCO)c1=O [P-0497, (R)-1-(5-cyano-1-(2-hydroxyethyl)-6-oxo-1,6-dihydropyridazin-4-yl)pyrrolidin-3-yl (4,4-difluorocyclohexyl)carbamate] | 5.00 to 9.00 | 5.00 to 9.00 |
| Cc1onc(C(=O)N2CCC(NC(=O)O[C@@H]3CCN(c4cn[nH]c(=O)c4Cl)C3)CC2)c1C [P-0498, (R)-1-(5-chloro-6-oxo-1,6-dihydropyridazin-4-yl)pyrrolidin-3-yl (1-(4,5-dimethylisoxazole-3-carbonyl)piperidin-4-yl)carbamate] | 5.00 to 9.00 | 5.00 to 9.00 |
| Cc1cc(C(=O)N2CCC(NC(=O)O[C@@H]3CCN(c4cn[nH]c(=O)c4Cl)C3)CC2)no1 [P-0499, (R)-1-(5-chloro-6-oxo-1,6-dihydropyridazin-4-yl)pyrrolidin-3-yl (1-(5-methylisoxazole-3-carbonyl)piperidin-4-yl)carbamate] | 5.00 to 9.00 | 5.00 to 9.00 |
| Cc1nc(C)c(C(=O)N2CCC(NC(=O)O[C@@H]3CCN(c4cn[nH]c(=O)c4Cl)C3)CC2)o1 [P-0500, (R)-1-(5-chloro-6-oxo-1,6-dihydropyridazin-4-yl)pyrrolidin-3-yl (1-(2,4-dimethyloxazole-5-carbonyl)piperidin-4-yl)carbamate] | 5.00 to 9.00 | 5.00 to 9.00 |
| Cc1nc(C(=O)N2CCC(NC(=O)O[C@@H]3CCN(c4cn[nH]c(=O)c4Cl)C3)CC2)cs1 [P-0501, (R)-1-(5-chloro-6-oxo-1,6-dihydropyridazin-4-yl)pyrrolidin-3-yl (1-(2-methylthiazole-4-carbonyl)piperidin-4-yl)carbamate] | 5.00 to 9.00 | 5.00 to 9.00 |
| Cc1occc1C(=O)N1CCC(NC(=O)O[C@@H]2CCN(c3cn[nH]c(=O)c3Cl)C2)CC1 [P-0502, (R)-1-(5-chloro-6-oxo-1,6-dihydropyridazin-4-yl)pyrrolidin-3-yl (1-(2-methylfuran-3-carbonyl)piperidin-4-yl)carbamate] | 5.00 to 9.00 | 5.00 to 9.00 |
| Cc1ncoc1C(=O)N1CCC(NC(=O)O[C@@H]2CCN(c3cn[nH]c(=O)c3Cl)C2)CC1 [P-0503, (R)-1-(5-chloro-6-oxo-1,6-dihydropyridazin-4-yl)pyrrolidin-3-yl (1-(4-methyloxazole-5-carbonyl)piperidin-4-yl)carbamate] | 5.00 to 9.00 | 5.00 to 9.00 |
| Cc1noc(C)c1C(=O)N1CCC(NC(=O)O[C@@H]2CCN(c3cn[nH]c(=O)c3Cl)C2)CC1 [P-0504, (R)-1-(5-chloro-6-oxo-1,6-dihydropyridazin-4-yl)pyrrolidin-3-yl (1-(3,5-dimethylisoxazole-4-carbonyl)piperidin-4-yl)carbamate] | 5.00 to 9.00 | 5.00 to 9.00 |
| Cc1nonc1C(=O)N1CCC(NC(=O)O[C@@H]2CCN(c3cn[nH]c(=O)c3Cl)C2)CC1 [P-0505, (R)-1-(5-chloro-6-oxo-1,6-dihydropyridazin-4-yl)pyrrolidin-3-yl (1-(4-methyl-1,2,5-oxadiazole-3-carbonyl)piperidin-4-yl)carbamate] | 5.00 to 9.00 | 5.00 to 9.00 |
| O=C(NC1CCCC(F)(F)C1)O[C@H]1CN(c2cn[nH]c(=O)c2Cl)C[C@@H]1F (stereo partly drawn) [P-0506, (3S,4S)-1-(5-chloro-6-oxo-1,6-dihydropyridazin-4-yl)-4-fluoropyrrolidin-3-yl (3,3-difluorocyclohexyl)carbamate] | 5.00 to 9.00 | 5.00 to 9.00 |
| O=C(NC1CCCC(F)(F)C1)O[C@H]1CN(c2cnn(CCO)c(=O)c2Cl)C[C@@H]1F (stereo partly drawn) [P-0507, (3S,4S)-1-(5-chloro-1-(2-hydroxyethyl)-6-oxo-1,6-dihydropyridazin-4-yl)-4-fluoropyrrolidin-3-yl (3,3-difluorocyclohexyl)carbamate] | 5.00 to 9.00 | 5.00 to 9.00 |
| O=C(N[C@@H]1CCC[C@H]1CO)O[C@@H]1CCN(c2cn[nH]c(=O)c2Cl)C1 [P-0508, (R)-1-(5-chloro-6-oxo-1,6-dihydropyridazin-4-yl)pyrrolidin-3-yl ((1R,2R)-2-(hydroxymethyl)cyclopentyl) carbamate] | 5.00 to 9.00 | 5.00 to 9.00 |
| O=C(N[C@@H]1CCC[C@H]1C(F)F)O[C@@H]1CCN(c2cn[nH]c(=O)c2Cl)C1 [P-0509, (R)-1-(5-chloro-6-oxo-1,6-dihydropyridazin-4-yl)pyrrolidin-3-yl ((1R,2R)-2-(difluoromethyl)cyclopentyl) carbamate] | 5.00 to 9.00 | 5.00 to 9.00 |
| CC(F)(F)[C@@H]1CCC[C@H]1NC(=O)O[C@@H]1CCN(c2cn[nH]c(=O)c2Cl)C1 [P-0510, (R)-1-(5-chloro-6-oxo-1,6-dihydropyridazin-4-yl)pyrrolidin-3-yl ((1R,2R)-2-(1,1-difluoroethyl)cyclopentyl) carbamate] | 5.00 to 9.00 | 5.00 to 9.00 |
| O=C(N[C@H]1CCCC(F)(F)C1)O[C@@H]1CCN(c2cn[nH]c(=O)c2Cl)C1 [P-0511, (R)-1-(5-chloro-6-oxo-1,6-dihydropyridazin-4-yl)pyrrolidin-3-yl ((S)-3,3-difluorocyclohexyl)carbamate] | 5.00 to 9.00 | 5.00 to 9.00 |
| O=C(N[C@@H]1CCCC(F)(F)C1)O[C@@H]1CCN(c2cn[nH]c(=O)c2Cl)C1 [P-0512, (R)-1-(5-chloro-6-oxo-1,6-dihydropyridazin-4-yl)pyrrolidin-3-yl ((R)-3,3-difluorocyclohexyl)carbamate] | 5.00 to 9.00 | 5.00 to 9.00 |
| O=C(N[C@@H]1CCCC(F)(F)C1)O[C@@H]1CCN(c2cnn(CCO)c(=O)c2Cl)C1 [P-0513, (R)-1-(5-chloro-1-(2-hydroxyethyl)-6-oxo-1,6-dihydropyridazin-4-yl)pyrrolidin-3-yl ((R)-3,3-difluorocyclohexyl)carbamate] | 5.00 to 9.00 | 5.00 to 9.00 |
| O=C(N[C@H]1CCCC(F)(F)C1)O[C@@H]1CCN(c2cnn(CCO)c(=O)c2Cl)C1 [P-0514, (R)-1-(5-chloro-1-(2-hydroxyethyl)-6-oxo-1,6-dihydropyridazin-4-yl)pyrrolidin-3-yl ((S)-3,3-difluorocyclohexyl)carbamate] | 5.00 to 9.00 | 5.00 to 9.00 |
| N#CC1(NC(=O)O[C@@H]2CCN(c3cn[nH]c(=O)c3Cl)C2)CCC1 [P-0515, (R)-1-(5-chloro-6-oxo-1,6-dihydropyridazin-4-yl)pyrrolidin-3-yl (1-cyanocyclobutyl)carbamate] | 5.00 to 9.00 | 5.00 to 9.00 |
| O=C(NC1CCC1)O[C@@H]1CCN(c2cn[nH]c(=O)c2Cl)C1 [P-0516, (R)-1-(5-chloro-6-oxo-1,6-dihydropyridazin-4-yl)pyrrolidin-3-yl cyclobutylcarbamate] | 5.00 to 9.00 | 5.00 to 9.00 |
